Where two headings read alike, the source gives them in different places.
Test system: hyperlipidémie provoquée par l'administration de TRITON®
Experiment: Triton test: hyperlipidemia induced by i.v. TRITON W.R. in fasted rats
Format: in vivo, rats WISTAR mâles
Conditions: for Cholestérol estérifié Score (par rapport au clofibrate compté pour 1) / Cholestérol total Score (par rapport au clofibrate compté pour 1) / Lipides totaux Score (par rapport au clofibrate compté pour 1) / Triglycérides Score (par rapport au clofibrate compté pour 1): ratio to clofibrate of the same series; for inhibition in vivo at 250 mg/kg: Rattus norvegicus, po, blood assayed 6 h and/or 24 h later
Excerpt: Dans une première série d'expériences, des produits ont été testés sur une hyperlipidémie provoquée par l'administration de TRITON® selon le protocole suivant.
Les essais ont été réalisés sur des groupes de cinq rats WISTAR mâles dont le poids varie de 150 à 175 g.
Pour effectuer ces essais, on provoque une hyperlipidémie chez les animaux, au moyen du produit commercialisé par la Société ROHM and HAAS sous le nom de TRITON® W. R.
On observe, sur cette hyperlipidémie, les effets obtenus par administration des substances actives selon l'invention.
Les essais sont réalisés comme suit : • les rats sont mis à jeûner pendant 18 heures, puis on administre le TRITON® W.R. par voie intraveineuse en solution aqueuse à 10 % à raison de 200 mg/kg ;
6 heures et/ou 24 heures plus tard, on effectue les dosages sur le sang de façon traditionnelle.
Dans la première colonne, on a indiqué le numéro du composé testé.
Dans la deuxième colonne, on a indiqué le nombre d'animaux qui ont été soumis au test.
Dans les quatre dernières colonnes, on a indiqué les résultats relatifs respectivement : • aux lipides totaux, • aux triglycérides, • au cholestérol total, • au cholestérol estérifié.
Dans chacune de ces colonnes, on indique : • a) le pourcentage de diminution par rapport au témoin TRITON; • b) le score par rapport au clofibrate de référence, c'est-à-dire le rapport de l'intensité de l'activité du produit testé vis-à-vis de celle,de l'activité au clofibrate comptée pour 1.

[1] = 250 mg/kg oral, given with TRITON W.R. 200 mg/kg i.v., read-out: Cholestérol estérifié % (pourcentage de diminution par rapport au témoin TRITON)
[2] = 250 mg/kg oral, given with TRITON W.R. 200 mg/kg i.v., read-out: Cholestérol total % (pourcentage de diminution par rapport au témoin TRITON)
[3] = 250 mg/kg oral, given with TRITON W.R. 200 mg/kg i.v., read-out: Triglycérides % (pourcentage de diminution par rapport au témoin TRITON)
[4] = read-out: Lipides totaux % (pourcentage de diminution par rapport au témoin TRITON), 250 mg/kg oral, given with TRITON W.R. 200 mg/kg i.v.

| SMILES | Cholestérol estérifié Score (par rapport au clofibrate compté pour 1) (250 mg/kg oral) | Cholestérol total Score (par rapport au clofibrate compté pour 1) (250 mg/kg oral) | Lipides totaux Score (par rapport au clofibrate compté pour 1) (250 mg/kg oral) | Triglycérides Score (par rapport au clofibrate compté pour 1) (250 mg/kg oral) | inhibition in vivo at 250 mg/kg [1] [%] | inhibition in vivo at 250 mg/kg [2] [%] | inhibition in vivo at 250 mg/kg [3] [%] | inhibition in vivo at 250 mg/kg [4] [%] |
| --- | --- | --- | --- | --- | --- | --- | --- | --- |
| COc1cc(N)c(Cl)cc1S(=O)(=O)NCCO [compound 282] | 0,46 | 0,75 | 0,26 | 0,42 | 15.5 | 13.3 | 21.6 | 12 |
| CCC(CO)NS(=O)(=O)c1ccc([N+](=O)[O-])cc1OC (centres unmarked) [compound 312] |  |  | 1,79 |  | 54.1 | 55.1 | 0 | 45.4 |
| CCC(CO)NS(=O)(=O)c1ccc(N)cc1OC (centres unmarked) [compound 313] |  |  | 0,77 |  | 39.4 | 39.3 | 0 | 19.4 |
| CCC(CO)NS(=O)(=O)c1cc([N+](=O)[O-])ccc1OC (centres unmarked) [compound 314] |  |  | 1,02 | 0,04 | 44 | 42.1 | 1.2 | 25.9 |
| CCC(CO)NS(=O)(=O)c1cc(Cl)c(N)cc1OC (centres unmarked) [compound 317] | 0,52 | 0,17 | 3,11 |  | 25.4 | 1.6 | 0 | 42.9 |
| COc1cc([N+](=O)[O-])ccc1S(=O)(=O)NCC(C)O (centres unmarked) [compound 319] | 0,33 | 0,17 | 1,55 | 0,78 | 16.4 | 1.6 | 56.5 | 21.4 |
| COc1cc(N)ccc1S(=O)(=O)NCC(C)O (centres unmarked) [compound 320] | 0,34 | 1,61 | 1,48 | 0,91 | 16.7 | 15.3 | 66.1 | 20.5 |
| COc1ccc([N+](=O)[O-])cc1S(=O)(=O)NCC(C)O (centres unmarked) [compound 321] | 0,95 | 1,44 | 2,84 | 1,05 | 46.7 | 13.7 | 76 | 39.2 |
| COc1cc([N+](=O)[O-])c(Cl)cc1S(=O)(=O)NCC(C)O (centres unmarked) [compound 322, chloro-5 N-(hydroxy-2 propyl) méthoxy-2 nitro-4 benzènesulfonamide] | 0,27 | 0,83 | 3,15 | 1,02 | 13.1 | 7.9 | 73.4 | 43.5 |
| COc1ccc(Cl)cc1S(=O)(=O)N(C)CCO [compound 324] | 0,52 | 2,85 | 0,58 |  | 22.6 | 26.2 | 19.4 | 25.9 |
| COc1cc([N+](=O)[O-])ccc1S(=O)(=O)N(C)CCO [compound 325] | 0,04 |  | 0,06 |  | 1.6 | 0 | 0 | 2.7 |
| COc1cc(N)ccc1S(=O)(=O)N(C)CCO [compound 326] | 0,67 | 0,41 | 0,71 |  | 29 | 3.8 | 20.3 | 31.9 |

From patent EP0081425B1, “Pharmaceutical compositions having normolipemic properties and containing compounds of the n-substituted benzenesulfonamide type” (priority 1981, dated 1983)
